# Measurements as given in patent publication US20060106014A1, “Methods for treating diabetes” (priority 2004, published 2006).
# Legend:
# [1] = biological target: T1, porcine leukocyte 12/15-lipoxygenase (Sus scrofa, UniProt P16469); assay: 12/15-Lipoxygenase Enzyme Assay (colorimetric, ferric oxidation of xylenol orange); type: biochemical; settings: read-out: in vitro IC50 value in a 12/15-LO enzyme assay
# T1 construct: purchased Cayman 60300
# T1 sequence (P16469 1-663): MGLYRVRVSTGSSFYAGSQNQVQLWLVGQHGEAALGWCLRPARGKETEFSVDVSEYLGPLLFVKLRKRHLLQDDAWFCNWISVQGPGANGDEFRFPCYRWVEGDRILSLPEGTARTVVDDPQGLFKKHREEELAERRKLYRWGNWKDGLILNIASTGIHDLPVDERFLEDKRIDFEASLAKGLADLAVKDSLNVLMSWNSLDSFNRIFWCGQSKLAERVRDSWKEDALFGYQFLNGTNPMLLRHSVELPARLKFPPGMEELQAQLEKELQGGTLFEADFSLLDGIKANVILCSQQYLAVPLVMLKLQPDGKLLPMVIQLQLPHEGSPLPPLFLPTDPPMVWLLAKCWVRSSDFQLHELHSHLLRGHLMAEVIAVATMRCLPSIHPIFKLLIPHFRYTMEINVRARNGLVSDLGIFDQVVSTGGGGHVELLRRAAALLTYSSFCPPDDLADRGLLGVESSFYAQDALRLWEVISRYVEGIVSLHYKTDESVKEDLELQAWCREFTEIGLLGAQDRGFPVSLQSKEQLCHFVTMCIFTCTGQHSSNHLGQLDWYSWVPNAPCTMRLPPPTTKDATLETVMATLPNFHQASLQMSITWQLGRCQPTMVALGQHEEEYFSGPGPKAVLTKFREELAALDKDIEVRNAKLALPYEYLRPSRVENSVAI
# Experimental: This procedure was used for measuring the enzymatic activity of porcine leukocyte 12/15-lipoxygenase using a colorimetric method based on the ferric oxidation of xylenol orange.
# (§1) The test compound and/or vehicle were added to 1.3 μL 12/15-lipoxygenase in 50 mM Tris-HCl buffer, pH 7.4. The reaction was initiated by addition of 70 μM arachidonic acid in Tris-HCl buffer, pH 7.4, and terminated after a 10 minute incubation at room temperature by addition of FOX reagent (25 mM sulphuric acid, 100 μM xylenol orange, 100 μM iron (II) sulphate, methanol:water 9:1). The yellow color of acidified xylenol orange was converted to a blue color by the lipid hydroperoxide-mediated oxidation of Fe^2+ ions and the interaction of the resulting Fe^3+ ions with the dye. The complex was allowed to form during a 1 hour incubation at room temperature with shaking. Absorbance of the Fe^3+ complex was then measured at 620 nm using a spectrophotometer.
# Negative controls contained enzyme during the incubation step but substrate was not added until after the FOX reagent.
# 5-lipoxygenase = biological target: T2, 5-lipoxygenase (Homo sapiens, UniProt P09917); assay: 5-Lipoxygenase Enzyme Assay (colorimetric, ferric oxidation of xylenol orange); type: biochemical; design: purchased Cayman 60402; settings: read-out: in vitro IC50 value in a 5-LO enzyme assay
# T2 sequence (P09917 1-674): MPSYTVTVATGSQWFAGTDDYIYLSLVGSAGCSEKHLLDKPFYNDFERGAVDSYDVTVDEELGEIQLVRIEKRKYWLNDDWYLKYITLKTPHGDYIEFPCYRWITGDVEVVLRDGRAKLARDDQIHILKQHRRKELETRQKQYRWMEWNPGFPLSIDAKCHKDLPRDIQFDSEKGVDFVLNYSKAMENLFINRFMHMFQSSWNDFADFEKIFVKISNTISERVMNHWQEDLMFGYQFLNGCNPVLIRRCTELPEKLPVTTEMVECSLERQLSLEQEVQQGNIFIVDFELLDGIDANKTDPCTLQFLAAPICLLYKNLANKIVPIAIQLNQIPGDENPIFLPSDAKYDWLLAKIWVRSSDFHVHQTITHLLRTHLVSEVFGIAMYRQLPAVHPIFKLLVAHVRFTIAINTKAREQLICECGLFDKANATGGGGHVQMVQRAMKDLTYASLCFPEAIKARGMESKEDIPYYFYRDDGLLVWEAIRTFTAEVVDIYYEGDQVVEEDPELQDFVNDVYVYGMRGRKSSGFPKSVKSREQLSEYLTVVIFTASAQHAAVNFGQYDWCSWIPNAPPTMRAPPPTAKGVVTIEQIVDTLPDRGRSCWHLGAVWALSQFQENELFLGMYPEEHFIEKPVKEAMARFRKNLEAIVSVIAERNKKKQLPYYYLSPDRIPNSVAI
# Experimental: This procedure was used for measuring the enzymatic activity of human recombinant 5-lipoxygenase using a colorimetric method based on the ferric oxidation of xylenol orange.
# as §1, with “was” for “were”, “0.5” for “1.3”, “5-lipoxygenase” for “12/15-lipoxygenase”, “spectrophotometer. Negative controls contained enzyme during the incubation step but substrate was not added until after the FOX reagent.” for “spectrophotometer.”
Structure (SMILES),IC50 [1] [µM],IC50 (5-lipoxygenase) [µM]
"COCOc1ccc(C=Cc2ccc(C(F)(F)F)cc2)cc1OCOC [1,2-bis-methoxymethoxy-4-[2-(4-trifluoromethyl-phenyl)-vinyl]-benzene]",< 5,< 5
"Cc1c(O)c(C)c(C(F)(F)F)c2c1CCC(C)(C)O2 [2,2,5,7-tetramethyl-8-(trifluoromethyl)chroman-6-ol]",< 5,< 5
"Cc1c(O)cc2c(c1C)OC(C)(CCCl)CC2 (stereo not drawn) [2-(2-chloro-ethyl)-2,7,8-trimethyl-chroman-6-ol]",< 5,< 5
"Cc1c(C)c2c(c(C)c1O)CCC(C)(c1cc(F)c(O)c(F)c1)O2 (stereo not drawn) [2-(3,5-difluoro-4-hydroxyphenyl)-2,5,7,8-tetramethylchroman-6-ol]",< 5,< 5
"N#Cc1ccc(C=Cc2ccc(O)c(O)c2O)cc1 [4-[2-(2,3,4-trihydroxy-phenyl)-vinyl]-benzonitrile]",< 5,< 5
"O=[N+]([O-])c1ccc(C=Cc2ccc(O)c(O)c2)cc1 [4-[2-(4-nitro-phenyl)-vinyl]-benzene-1,2-diol]",< 5,< 5
"COCOc1ccc(C=Cc2ccc(C(C)(C)C)cc2)cc1OCOC [4-[2-(4-tert-Butyl-phenyl)-vinyl]-1,2-bis-methoxymethoxy-benzene]",< 5,< 5
"COC(=O)c1ccc(C=Cc2ccc(O)c(O)c2CC=C(C)C)cc1 [4-{2-[3,4-dihydroxy-2-(3-methyl-but-2-enyl)-phenyl]-vinyl}benzoic acid methyl ester]",< 5,< 5
"CC(C)=CCc1cc(C=Cc2ccc(N(C)C)cc2)cc(O)c1O [5-(4-(dimethylamino)styryl)-3-(3-methylbut-2-enyl)benzene-1,2-diol]",< 5,< 5
"CNc1ccc(C=Cc2cc(O)c(O)c(CC=C(C)C)c2)cc1 [5-(4-(methylamino)styryl)-3-(3-methylbut-2-enyl)benzene-1,2-diol]",< 5,< 5
"Cc1c(C)c2c(c(-c3ccco3)c1O)CCC(C)(C)O2 [5-(furan-2-yl)-2,2,7,8-tetramethylchroman-6-ol]",< 5,< 5
"C=CCSCc1c(O)c(C)c(C)c2c1CCC(C)(C)O2 [5-allylsulfanylmethyl-2,2,7,8-tetramethyl-chroman-6-ol]",< 5,< 5
"Cc1c(O)c(C)c2c(c1CCC(C)C)OC(C)(C)CC2 [8-isopentyl-2,2,5,7-tetramethylchroman-6-ol]",< 5,< 5
"CS(=O)(=O)Nc1ccc(C=Cc2ccc(O)c(O)c2)cc1 [N-{4-[2-(3,4-dihydroxy-phenyl)-vinyl]-phenyl}methanesulfonamide]",< 5,< 5

# Now from value to compound:
IC50 [1] [µM],IC50 (5-lipoxygenase) [µM],Structure (SMILES)
< 5,< 5,"Cc1c(O)c(CCC(C)C)c(C)c2c1CCC(C)(C)O2 [2,2,5,8-tetramethyl-7-(3-methyl-butyl)-chroman-6-ol]"
< 5,< 5,"CC1(C)CCc2cc(O)c3cccc(O)c3c2O1 [2,2-dimethyl-3,4-dihydro-2H-benzo[h]chromene-6,10-diol]"
< 5,< 5,"Cc1c(C)c2c(c(C)c1O)CCC(C)(c1cccs1)O2 (stereo not drawn) [2,5,7,8-tetramethyl-2-(thiophen-2-yl)chroman-6-ol]"
< 5,< 5,"Cc1c(C)c2c(c(C)c1O)CCC(C)(C=Cc1ccccc1)O2 (stereo not drawn) [2,5,7,8-tetramethyl-2-styrylchroman-6-ol]"
< 5,< 5,"Cc1cc(C=Cc2ccc([N+](=O)[O-])cc2)cc(C)c1O [2,6-dimethyl-4-[2-(4-nitro-phenyl)-vinyl]-phenol]"
< 5,< 5,"Oc1ccc(C=Cc2ccc(O)c(O)c2)c(O)c1 [4-(2,4-dihydroxystyryl)benzene-1,2-diol]"
< 5,< 5,"N#Cc1ccc(CCc2cc(O)c(O)c(O)c2)cc1 [4-(3,4,5-trihydroxyphenethyl)benzonitrile]"
< 5,< 5,"COC(=O)c1ccc(C=Cc2ccc(O)c(O)c2)cc1 [4-[2-(3,4-dihydroxy-phenyl)-vinyl]-benzoic acid methyl ester]"
< 5,< 5,"Oc1ccc(C=Cc2ccc(Br)cc2)cc1O [4-[2-(4-bromo-phenyl)-vinyl]-benzene-1,2-diol]"
< 5,< 5,"O=S(=O)(c1ccc(C=Cc2ccc(O)c(O)c2)cc1)N1CCCCC1 [4-{2-[4-(piperidine-1-sulfonyl)-phenyl]-vinyl}benzene-1,2-diol]"
< 5,< 5,"O=[N+]([O-])c1ccc(CCc2cc(O)c(O)c(O)c2)cc1 [5-(4-nitrophenethyl)benzene-1,2,3-triol]"
< 5,< 5,"Cc1c(C)c2c(c(Cl)c1O)CCC(C)(C)O2 [5-chloro-2,2,7,8-tetramethylchroman-6-ol]"
< 5,< 5,"COc1c(O)c(C)c(C)c2c1CCC(C)(C)O2 [5-methoxy-2,2,7,8-tetramethylchroman-6-ol]"
< 5,< 5,"Cc1c(O)c(Br)c(C)c2c1CCC(C)(C)O2 [7-bromo-2,2,5,8-tetramethyl-chroman-6-ol]"
< 5,< 5,"Cc1c(O)c(C)c2c(c1I)OC(C)(C)CC2 [8-iodo-2,2,5,7-tetramethylchroman-6-ol]"
< 5,< 5,"CC(=O)Nc1ccc(C=Cc2ccc(O)c(O)c2)cc1 [N-{4-[2-(3,4-dihydroxy-phenyl)-vinyl]-phenyl}acetamide]"
